Source: PMC5062470, “The mGluR2 positive allosteric modulator, SAR218645, improves memory and attention deficits in translational models of cognitive symptoms associated with schizophrenia” (Scientific Reports, 2016)

Assays:
human mGluR2 [1] = target: T1, human mGluR2 (Homo sapiens, UniProt Q14416); experiment: Multispan Allosteric Profiling panel, Ca2+ (Gqi5), control experiment; format: cell-based; settings: increasing concentrations of SAR218645; Gqi5 cells
human mGluR7 = target: T2, human mGluR7 (Homo sapiens, UniProt Q14831); experiment: Multispan Allosteric Profiling panel, Ca2+ (Gqi5); format: cell-based
T2 construct: host or cells: HEK293 co-expressing Gqi5

DAT−/− mice = experiment: Spontaneous locomotor hyperactivity of transgenic mice; format: in vivo
Method: (§1) An actimeter device consisting of a cylinder (20 cm diameter, 9.5 cm height, Apelex, France) equipped with two perpendicular light beams located 1.5 cm above the floor was used. Mice from the transgenic batches (DAT^−/− and NMDA Nr1^neo−/−) were orally pretreated with either SAR218645 or vehicle and individually isolated in boxes for a period of 60 min. Animals were then placed in the actimeter device and locomotor activity (number of interrupted light beams) was recorded for a period of 30 or 60 min. Mice in which the expression of the dopamine transporter (DAT) was knocked out (i.e., the DAT^−/− mouse) have been proposed as a reliable model of the positive symptoms of schizophrenia. In these mice, dopamine levels in the synapse are dramatically elevated and these animals are hyperactive and agitated in behavioral tests. NMDA Nr1^neo−/− mice express only 5 to 10% of normal levels of the NR1 subunit of the NMDA receptor[33], thus mimicking a hypo-glutamatergic state. […] As such, they have been proposed as an animal model of schizophrenia. […] As such, in our present experiments, a relatively moderate dose of amphetamine (2 mg/kg ip) or MK-801 (0.2 mg/kg, ip) was used to selectively induce similar hyperactivity, with no noticeable appearance of stereotyped behaviors in normal mice. For amphetamine or MK-801 antagonism experiments, male Swiss mice (20–30 g) were orally pretreated with SAR218645, haloperidol or vehicle, immediately individually isolated in a Plexiglas box, followed 30 min later by administration of vehicle, amphetamine or MK-801. Immediately following amphetamine challenge, 30 min after MK-801 challenge, mice were placed in the actimeter devices and locomotor activity was recorded for a period of 30 (DAT^−/−) or 60 (NMDA Nr1^neo−/−) min.
(§2) Statistical analyses were performed using SAS V8.2 software (SAS Institute, Cary, NC, USA). The number of light beam breaks (motility count) recorded for 30 or 60 min were analyzed using one-way ANOVAs using a fixed factor of challenge or genotype and complementary post hoc (Newman-Keuls) tests were performed. Five to nine animals per group were used.

NMDA Nr1neo−/− mice [2] = experiment: as above; format: in vivo
Method: as §1, §2

NMDA Nr1neo−/− mice [3] = experiment: Y-maze test; format: in vivo
Method: The apparatus consisted of 3 arms in gray PVC in the shape of a Y. Arms were 28 cm long, 6 cm wide with walls 15 cm high. Movement was tracked manually using in-house software by an experimenter located in an adjacent room via a camera mounted directly above the maze. The animal was placed in an arm facing the center (Arm A) for 5 min. A correct alternation occurred when the animal moved to the other 2 arms without retracing its steps (i.e. Arm A to B to C). Movements such as ABA were incorrect. Based on the movement over the entire session, the percentage of correct alternations was calculated [i.e., (Total number of alternations × 100)/(Total number of arm entries-2)]. SAR218645 was administered po at 0.1 mg/kg 60 min prior to testing to either wild-type or NMDA Nr1^neo−/− mice. No dose-response effect was investigated due to the limited number of transgenic animals available. Statistics performed on total arm entries and percentage alternation consisted of using a two-way ANOVA, followed by a post-hoc Winer test for individual comparisons. Student’s t-test was used to compare the performance of each group with the chance level. Ten to eleven animals per group were used.

rat mGluR2 [4] = target: T3, rat mGluR2 (Rattus norvegicus, UniProt P31421); experiment: Ca2+ mobilization assay, HEK293 cells expressing rat mGluR2/Gα16
Method: Recombinant rat and human mGluR2 receptors were stably expressed in HEK293 Flp-in-T-REx cell lines with Gα16. Receptor and G-protein expression were induced with either tetracycline or doxycycline 20–24 hr before the experiment. Growth medium was replaced with HBSS buffer containing Ca^2+ and Mg^2+, 20 mM HEPES. Calcium mobilization was monitored using Fluo-4 or Calcium-3 dye on a Functional Drug Screening System (FDSS) reader (Hamamatsu Photonics, Hamamatsu City, Japan). Responses were measured as peak fluorescence intensity minus basal fluorescence. EC50 values were calculated using 4-parameter curve fitting.

rat mGluR2 [5] = target: T3, rat mGluR2; experiment: [3H]LY341495 binding to membranes; design: expressed in transfected cells; host or cells: inducible HEK-293 cell line (membranes); settings: 10 μM SAR218645
Method: Binding assay was adapted from Johnson et al.[29]. […] Addition of 5–10 μg membrane protein initiated the incubation. After 45 min at room temperature, the incubation was terminated by rapid filtration followed by scintillation counting. Ki’s were calculated using 4-parameter curve fitting.

human mGluR2 [6] = target: T1, human mGluR2; experiment: Ca2+ mobilization assay, HEK293 cells expressing human mGluR2/Gα16; format: cell-based; design: expressed in transfected cells; host or cells: HEK293 Flp-in-T-REx (inducible), co-expressing Gα16
human mGluR2 [7] = target: T1, human mGluR2; experiment: Forskolin-stimulated cAMP accumulation in HEK293 cells; format: cell-based; design: expressed in transfected cells; host or cells: HEK293 Flp-in-T-REx (inducible), co-expressing Gα16
Method: Recombinant human mGluR2 receptor and the excitatory amino acid transporter SLCA1 were stably expressed in a doxycycline inducible HEK293 Flp-in-T-Rex cell line. […] Cells were treated with the compounds, and cAMP production was induced with 1 μM Forskolin for 5 min. cAMP was detected using the CisBio HTRF detection kit. […] EC50 were calculated using 4-parameter curve fitting.

T3 sequence (P31421 19-872): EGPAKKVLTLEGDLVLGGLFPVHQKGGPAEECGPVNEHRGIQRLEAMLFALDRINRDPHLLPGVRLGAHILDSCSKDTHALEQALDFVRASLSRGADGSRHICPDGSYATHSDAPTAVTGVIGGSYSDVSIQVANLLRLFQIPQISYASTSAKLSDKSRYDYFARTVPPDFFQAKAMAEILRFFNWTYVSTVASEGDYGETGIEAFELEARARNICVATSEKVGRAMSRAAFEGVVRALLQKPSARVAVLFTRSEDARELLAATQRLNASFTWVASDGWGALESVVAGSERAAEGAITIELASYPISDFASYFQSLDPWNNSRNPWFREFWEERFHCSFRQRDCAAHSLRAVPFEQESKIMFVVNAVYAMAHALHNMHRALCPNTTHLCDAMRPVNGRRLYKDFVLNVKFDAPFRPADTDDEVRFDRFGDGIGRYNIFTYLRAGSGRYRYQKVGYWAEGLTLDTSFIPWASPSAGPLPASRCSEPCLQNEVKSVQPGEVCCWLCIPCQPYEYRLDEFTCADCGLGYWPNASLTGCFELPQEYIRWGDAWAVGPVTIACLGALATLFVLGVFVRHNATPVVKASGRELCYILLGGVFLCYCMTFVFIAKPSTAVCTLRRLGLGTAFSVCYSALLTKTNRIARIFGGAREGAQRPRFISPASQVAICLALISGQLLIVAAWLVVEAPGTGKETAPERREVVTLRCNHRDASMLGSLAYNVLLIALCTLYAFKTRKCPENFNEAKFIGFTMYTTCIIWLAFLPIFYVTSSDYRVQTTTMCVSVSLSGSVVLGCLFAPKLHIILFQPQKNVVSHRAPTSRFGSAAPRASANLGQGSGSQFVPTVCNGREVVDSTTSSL
T1 sequence (Q14416 19-872): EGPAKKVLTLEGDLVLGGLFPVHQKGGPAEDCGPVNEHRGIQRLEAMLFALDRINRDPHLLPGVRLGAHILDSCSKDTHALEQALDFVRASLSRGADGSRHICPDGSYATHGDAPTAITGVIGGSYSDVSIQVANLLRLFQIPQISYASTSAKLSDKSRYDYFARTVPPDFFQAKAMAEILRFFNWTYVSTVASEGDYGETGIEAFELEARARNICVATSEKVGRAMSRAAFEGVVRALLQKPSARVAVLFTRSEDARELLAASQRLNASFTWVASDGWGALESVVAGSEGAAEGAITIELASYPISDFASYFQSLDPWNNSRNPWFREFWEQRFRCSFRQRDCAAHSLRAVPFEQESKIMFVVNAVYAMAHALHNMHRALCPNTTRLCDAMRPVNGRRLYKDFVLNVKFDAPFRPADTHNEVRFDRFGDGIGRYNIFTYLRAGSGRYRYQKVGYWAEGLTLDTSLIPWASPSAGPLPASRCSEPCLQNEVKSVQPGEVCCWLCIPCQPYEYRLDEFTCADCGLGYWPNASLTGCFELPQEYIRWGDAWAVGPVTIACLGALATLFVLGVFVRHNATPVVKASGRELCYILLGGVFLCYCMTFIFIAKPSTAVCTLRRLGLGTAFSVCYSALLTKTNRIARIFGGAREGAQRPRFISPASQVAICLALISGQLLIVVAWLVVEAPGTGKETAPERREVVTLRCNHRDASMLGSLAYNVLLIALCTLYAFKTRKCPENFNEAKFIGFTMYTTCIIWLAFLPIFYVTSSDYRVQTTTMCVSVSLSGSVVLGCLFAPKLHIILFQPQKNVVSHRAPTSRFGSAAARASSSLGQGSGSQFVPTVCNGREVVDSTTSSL
T2 sequence (Q14831 35-915): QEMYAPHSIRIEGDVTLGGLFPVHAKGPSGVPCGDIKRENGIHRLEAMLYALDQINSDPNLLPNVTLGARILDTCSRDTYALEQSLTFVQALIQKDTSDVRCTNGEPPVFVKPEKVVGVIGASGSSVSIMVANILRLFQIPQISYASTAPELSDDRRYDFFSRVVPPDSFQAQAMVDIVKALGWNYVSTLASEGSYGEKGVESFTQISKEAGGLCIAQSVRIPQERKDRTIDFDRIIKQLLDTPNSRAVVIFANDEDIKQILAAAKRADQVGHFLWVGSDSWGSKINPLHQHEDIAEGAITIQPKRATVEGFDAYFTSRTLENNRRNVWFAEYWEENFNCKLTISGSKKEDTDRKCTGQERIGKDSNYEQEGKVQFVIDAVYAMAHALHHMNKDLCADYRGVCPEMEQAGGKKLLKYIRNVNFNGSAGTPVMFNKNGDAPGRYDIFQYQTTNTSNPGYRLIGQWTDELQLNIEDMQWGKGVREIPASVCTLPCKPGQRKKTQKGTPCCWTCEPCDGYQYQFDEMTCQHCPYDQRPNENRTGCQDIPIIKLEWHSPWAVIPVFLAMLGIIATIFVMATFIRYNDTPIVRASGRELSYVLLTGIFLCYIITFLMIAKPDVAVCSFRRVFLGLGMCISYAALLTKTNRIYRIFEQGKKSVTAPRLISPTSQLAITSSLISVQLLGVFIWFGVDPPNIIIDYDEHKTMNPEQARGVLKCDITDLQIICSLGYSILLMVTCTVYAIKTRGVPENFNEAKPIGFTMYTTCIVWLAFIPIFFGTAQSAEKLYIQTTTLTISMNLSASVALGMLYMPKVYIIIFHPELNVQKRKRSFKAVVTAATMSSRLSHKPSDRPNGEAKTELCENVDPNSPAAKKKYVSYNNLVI

## CC1(C)CCc2cc(OC[C@@H]3Cn4ccc(=O)nc4O3)ccc21 [SAR218645, (S)-2-(1,1-dimethyl-indan-5-yloxymethyl)-2,3-dihydro-oxazolo[3,2-a]pyrimidin-7-one]
Human mGluR2 [1]
  effect on glutamate response: leftward shift
Human mGluR7; 10 μM SAR218645
  effect on glutamate-induced activation: no effect
Human mGluR7; SAR218645 alone
  calcium response to compound alone: did not elicit a calcium response
DAT−/− mice; DAT−/− mice, SAR218645 po
  effect on locomotor activity: no effects
DAT−/− mice; dose-range 3–10, po
  Minimal active dose: >10 mg/kg
NMDA Nr1neo−/− mice [2]; NMDA Nr1neo−/− mice, SAR218645 po
  effect on locomotor activity: no effects
NMDA Nr1neo−/− mice [2]; dose-range 1–10, po
  Minimal active dose: >10 mg/kg
NMDA Nr1neo−/− mice [3]; 0.1 mg/kg po, P < 0.05
  spontaneous alternations versus saline-treated transgenic animals: significantly more spontaneous alternations
NMDA Nr1neo−/− mice [3]; 0.1, po
  Minimal active dose: 0.1 mg/kg
Rat mGluR2 [4]; EC10 concentration (100 nM) of glutamate
  effect on response to EC10 glutamate: enhanced sensitivity to glutamate
Rat mGluR2 [4]; absence of glutamate
  intrinsic agonism (compound alone): no effect per se
Rat mGluR2 [4]; increasing concentrations of SAR218645
  effect on maximal response to glutamate: no significant increase
Rat mGluR2 [4]; increasing concentrations of SAR218645, HEK293 rat mGluR2/Gα16
  enhancement of glutamate potency (leftward shift of glutamate concentration-response curve): approximately 25 fold
Rat mGluR2 [5]
  inhibition of [3H]LY341495 binding by compound alone: not inhibited
  lowering of the Ki of glutamate: 3.5 fold
Rat mGluR2 [5]; Fig. 5B
  maximal binding, glutamate in the presence of SAR218645: 90%
Human mGluR2 [6]
  maximal potentiation of the glutamate response: approximately 10 fold
Human mGluR2 [7]
  EC50: 159 nM
